Values of other authors, collected in patent publication US7271001B2, “Method for mitochondrial targeting of p53” (The Research Foundation of State University of New York, priority 2004, dated 2007).

How the values were obtained:
[1] = tested on: tumor-derived p53 mutant proteins; details: cell-based assays in vitro
[2] = tested on: tumor xenografts; details: tumor xenografts in nude mice

Structure (SMILES)	restoration of transcriptional p53 function [1]	tumor growth [2]
COc1ccc(/C=C/c2nc(NCCCN(C)C)c3ccccc3n2)cc1 [CP-31398]	can restore transcriptional p53 function	slow tumor growth
O=C1C2CCN(CC2)C1(CO)CO [PRIMA-1]	can restore transcriptional p53 function	slow tumor growth
